Experimental findings from publication PMC10868801, “Characterization of covalent inhibitors that disrupt the interaction between the tandem SH2 domains of SYK and FCER1G phospho-ITAM” (PLOS ONE, 2024) are described below.

Non-standard residues stand in square brackets, D forms with d. Residues, ends and D or L forms follow the SMILES beside them. Primed or numbered codes have the meaning given here. No end group written: not given here. pY = N[C@@H](Cc1ccc(OP(=O)(O)O)cc1)C(=O)O; FITC′ = not defined here

In test [1] the target is T1, SYK-tSH2 / FCER1G p-ITAM interaction (Homo sapiens, UniProt P43405).
T1 construct: the tSH2 domain of SYK (residues M6-N269) fused to an N-terminal 6×His tag; made in house; host or cells: E. coli BL21(DE3)-R3-pRARE
Description: TR-FRET assay of 6xHis-SYK-tSH2 with FITC-labeled FCER1G p-ITAM peptide. Type of test: biochemical. To be noted: competition of FITC-labeled FCER1G p-ITAM peptide by unlabeled peptide. An excerpt: To facilitate identification of inhibitors of the SYK-FCER1G interaction, we developed a TR-FRET assay using recombinant protein comprising the tSH2 domain of SYK (residues M6-N269) fused to an N-terminal 6×His tag (S1A Fig). The TR-FRET assay is based on the interaction of a FITC-labeled FCER1G p-ITAM peptide to the 6×His-SYK-tSH2 protein in complex with a terbium-conjugated anti-His antibody (Tb-Ab) (Fig 3B). Once excited, a TR-FRET signal is generated from the Tb donor to the FITC acceptor fluorophore. […] To enable uHTS for large scale screening of small molecule libraries, we miniaturized the TR-FRET assay from 96-well plate format to a 1536-well.
TR-FRET experiments were performed in 20 μL reactions, using 384-well shallow-well microplates (PerkinElmer). Final reaction components contained 6xHis-SYK-tSH2 (SYKA-c020 tagged) (4 nM), FITC-conjugated FCER1G peptide (8 nM), Tb-conjugated anti-6xHis antibody (53 ng/ml; Cisbio) in assay buffer containing 25 mM HEPES (pH 7.5), 200 mM NaCl, 0.1% BSA and 0.05% Tween-20. After a 2h incubation (at room temperature), TR-FRET signals were measured on a BMG Labtech PHERAstar FSX reader using a Lanthascreen Optics Module. A 200 μs delay was used after excitation with a flash lamp before measurement of fluorescence emission at […]. TR-FRET ratios of fluorescent intensity at 520 nm to 490 nm were calculated. The half maximal inhibitory concentration (IC50) was determined by fitting a four parametric logistic curve to the data.
Background: In TR-FRET formats the signal depends on donor and acceptor labels being close together.

In test [2] the target is T2, full length SYK and FCER1G (Homo sapiens, UniProt P43405).
T2 construct: full length GST-SYK and FCER1G-Flag were co-expressed in HEK293 cells prior to lysis; expressed in transfected cells; host or cells: HEK293T (CRL-3216, ATCC)
Description: GST pull-down (GST-PD) of GST-SYK and FCER1G-Flag from HEK293T cell lysates. Format: biochemical. As to the method:
Pull-down assays were used as an orthogonal assay to determine if the compounds could disrupt the PPI between full length SYK and FCER1G proteins from cell lysates. To optimize GST pulldown assays, full length GST-SYK and FCER1G-Flag were co-expressed in HEK293 cells prior to lysis and the protein expression and cell lysate concentrations tested (Fig 4A). All 40 compounds that progressed from uHTS were tested via GST-PD at a single concentration (100 μM) to determine if they could inhibit the PPI between the full-length proteins, with the p-ITAM FCER1G peptide used as a positive control (Fig 4B). […] Compound 24 contains a promiscuous maleimide, which is well known to react indiscriminately with proteins.
GST-, VF-tagged human SYK and FCER1G plasmids for mammalian expression were generated using Gateway cloning technology (Invitrogen) as described previously. The DNA was purified using ZymoPURE Plasmid Maxiprep Kit (D4203, Zymo Research).
WB secondary antibodies: peroxidase-conjugated AffiniPure Goat Anti-Mouse IgG (H+L) (115-035-003, Jackson Immuno Research) 1:5000 dilution in TBST. GST pulldown was performed as described with minor changes. HEK293T (CRL-3216, ATCC) were cultured in Dulbecco’s modified Eagle’s medium with 4.5 g/L glucose, L-glutamine, and sodium pyruvate (10–013-CV, Corning) supplemented with 10% fetal bovine serum and 1% penicillin/streptomycin solution (30–002-CI, CellGro). Cells were incubated at 37°C in humidified conditions with 5% CO2. The HEK293T cells were transfected using 1 mg/mL Polyethylenimine (PEI; 23966, Polysciences) in a ratio of 3 μL to 1 μg DNA. The proteins were expressed for 48 h at 37°C. Cell pellets were re-suspended in the SYK lysis buffer (25 mM HEPES, pH 7.5, 200 mM NaCl, 0.5% Triton X100 (T9284-1L, Sigma-Aldrich), followed by sonication for 10 s (5 s on, 5 s off) at 4°C. Cells were pelleted by 10 min centrifugation at 13,000 rpm at 4°C. The cleared lysates were first pre-incubated with compounds for 30 min and then incubated with glutathione sepharose 4B beads (17075605, Cytiva Sweden AB) at 4°C for 2 h with rotation. After the incubation, beads were washed three times with the SYK lysis buffer, eluted by boiling in sodium dodecyl sulfate-polyacrylamide gel electrophoresis (SDS–PAGE) loading buffer (1610737, Bio-Rad), and analyzed by western blotting.

Test [3] addresses 6xHis-SYK-tSH2 (tandem SH2 domains of human SYK, residues M6-N269, SYKA-c020 tagged) (human) (UniProt P43405). As to the kind of experiment: AlphaScreen or HTRF; TR-FRET competition: 6xHis-SYK-tSH2 4 nM with Tb-conjugated anti-6xHis antibody, FITC-conjugated FCER1G peptide 8 nM, unlabeled peptide titrated; 25 mM HEPES pH 7.5, 200 mM NaCl, 0.1% BSA, 0.05% Tween-20; 2 h at room temperature. (Bead proximity is the source of the signal in Alpha formats.)

Take `CC(C)C[C@H](NC(=O)CNC(=O)[C@@H](NC(=O)[C@H](Cc1ccc(OP(=O)(O)O)cc1)NC(=O)[C@@H](NC(=O)CNC(=O)[C@@H](N)CC(=O)O)C(C)C)[C@@H](C)O)C(=O)N[C@@H](CO)C(=O)N[C@H](C(=O)N[C@@H](CCCNC(=N)N)C(=O)N[C@@H](CC(N)=O)C(=O)N[C@@H](CCC(N)=O)C(=O)N[C@@H](CCC(=O)O)C(=O)N[C@H](C(=O)N[C@@H](Cc1ccc(OP(=O)(O)O)cc1)C(=O)N[C@@H](CCC(=O)O)C(=O)N[C@H](C(=O)N[C@@H](CC(C)C)C(=O)N[C@@H](CCCCN)C(=O)N[C@@H](Cc1c[nH]cn1)C(=O)O)[C@@H](C)O)[C@@H](C)O)[C@@H](C)O` [FCER1G p-ITAM peptide] (H-DGV[pY]TGLSTRNQET[pY]ETLKH-OH): the IC50 (as a rule, the concentration that gives 50% inhibition) in test [1] stood at 12 nM. As for `O=C1C=CC(=O)N1c1ccc(Sc2ccc(N3C(=O)C=CC3=O)cc2)cc1` [compound 24], in test [2] (dose-response format), the “PPI disruption in GST-PD” value is recorded as “confirmed to disrupt the PPI”. Further, in test [2] (single concentration (100 μM)), the “Inhibition of SYK-GST / FCER1G-Flag interaction in pulldown” value is recorded as “able to inhibit the interaction”. As to “FCER1G-nonphospho-ITAM[62–81]-FITC (peptide)”, the IC50 in test [3] was over 1000 nM. The molecule FCER1G-phospho-ITAM[62–81] (peptide) gave an IC50 in test [3] of 12 nM. “non-phosphorylated FCER1G ITAM peptide: non-phosphorylated FCER1G ITAM peptide used as control (DGVYTGLSTRNQETYETLKH-{FITC′})”: the IC50 in test [1] is over 1000 nM.
